Molecules are shown by their SMILES.

Among the data in patent publication US11434289B2, “Anti-GPR20 antibody and anti-GPR20 antibody-drug conjugate” (DAIICHI SANKYO COMPANY, LIMITED, priority 2017, dated 2022) are tumor growth values, retold here.

Assay [1] has as its system GIST074. The assay can be described thus: Antitumor effect in subcutaneously GIST074-transplanted nude mouse models (regorafenib-unresponsive patient tumor). The format is in vivo, BALB/c nude mice. As to conditions: orally once a day; imatinib 90, sunitinib 30, regorafenib 4 mg/kg; FIG. 36. The method, then:
The antitumor effects of the antibody-drug conjugates were evaluated using animal models derived from immunodeficient mice by the transplantation of human gastrointestinal stromal tumor-derived cells. Five- to 6-week-old female BALB/c nude mice (CAnN.Cg-Foxnlnu/CrlCrlj, Charles River Laboratories Japan Inc.) were acclimatized for 4 to 7 days under SPF conditions before use in the experiment. The mice were fed with a sterilized solid diet (FR-2, Funabashi Farms Co., Ltd) and given sterilized tap water (which had been prepared by adding a 5 to 15 ppm sodium hypochlorite solution to tap water). The longest diameter and the shortest diameter of the transplanted tumor were measured once or twice a week using electronic digital calipers (CD-15CX, Mitutoyo Corp.), and the volume of the tumor was then calculated according to the following equation. Tumor volume (mm^3)=½×Longest diameter (mm)×[Shortest diameter (mm)]^2
[…] ABS buffer was administered in the same manner as above to a control group (vehicle group). Five or six mice per group were used in the experiment. […]

In assay [2] the test system is human gastrointestinal stromal tumor cell line GIST430/654. The assay can be described thus: Antitumor effect and combined use with sunitinib in GIST430/654-transplanted nude mouse models (imatinib resistance mutation V654A in KIT). It counts as in vivo, BALB/c nude mice. To be noted: orally once a day; imatinib 150, sunitinib 40 mg/kg; FIG. 37.
Protocol: The effect of combined use with sunitinib was evaluated in models with human gastrointestinal stromal tumor cell line GIST430/654 (obtained from Brigham Women's Hospital) having imatinib resistance mutation V654A in the KIT gene. […]

On to `CNC(=O)c1cc(Oc2ccc(NC(=O)Nc3ccc(Cl)c(C(F)(F)F)c3)c(F)c2)ccn1` [regorafenib], for which the tumor growth entry in assay [1] is “tumor growth was not completely suppressed”. Take `Cc1ccc(NC(=O)c2ccc(CN3CCN(C)CC3)cc2)cc1Nc1nccc(-c2cccnc2)n1` [imatinib]: the tumor growth entry is on record as “tumor growth was not completely suppressed” in assay [1] and “did not suppress tumor growth” in assay [2].
